Assay results taken from PubChem BioAssay AID2202555 (NIEHS Division of Translational Toxicology (DTT)).
Results filed as inconclusive are left out. Activity calls are given as the source filed them. How the calls were made is not given here.

Tested on: rat and mouse 2-year carcinogenicity bioassay, tumor evidence
Assay: Consolidated carcinogenicity assay summary data
Excerpt: Cancer Evaluation Criteria
The National Toxicology Program describes the results of individual experiments on a chemical agent and notes the strength of the evidence for conclusions regarding each study. […] Other organizations, such as the International Agency for Research on Cancer, assign a strength of evidence for conclusions based on an examination of all available evidence, including animal studies such as those conducted by the NTP, epidemiologic studies, and estimates of exposure. Thus, the actual determination of risk to humans from chemicals found to be carcinogenic in laboratory animals requires a wider analysis that extends beyond the purview of these studies.
Five categories of evidence of carcinogenic activity are used in the Technical Report series to summarize the strength of evidence observed in each experiment: two categories for positive results (clear evidence and some evidence); one category for uncertain findings (equivocal evidence); one category for no observable effects (no evidence); and one category for experiments that cannot be evaluated because of major flaws (inadequate study). These categories of interpretative conclusions were first adopted in June 1983 and then revised on March 1986 for use in the Technical Report series to incorporate more specifically the concept of actual weight of evidence of carcinogenic activity. For each separate experiment (male rats, female rats, male mice, female mice), one of the following five categories is selected to describe the findings. These categories refer to the strength of the experimental evidence and not to potency or mechanism.
For studies showing multiple chemical-related neoplastic effects that if considered individually would be assigned to different levels of evidence categories, the following convention has been adopted to convey completely the study results. In a study with clear evidence of carcinogenic activity at some tissue sites, other responses that alone might be deemed some evidence are indicated as "were also related" to chemical exposure. In studies with clear or some evidence of carcinogenic activity, other responses that alone might be termed equivocal evidence are indicated as "may have been" related to chemical exposure.
When a conclusion statement for a particular experiment is selected, consideration must be given to key factors that would extend the actual boundary of an individual category of evidence. Such consideration should allow for incorporation of scientific experience and current understanding of long-term carcinogenesis studies in laboratory animals, especially for those evaluations that may be on the borderline between two adjacent levels. These considerations should include:
- adequacy of the experimental design and conduct;
- occurrence of common versus uncommon neoplasia;
- progression (or lack thereof) from benign to malignant neoplasia as well as from preneoplastic to neoplastic lesions;
- some benign neoplasms have the capacity to regress but others (of the same morphologic type) progress. At present, it is impossible to identify the difference. Therefore, where progression is known to be a possibility, the most prudent course is to assume that benign neoplasms of those types have the potential to become malignant;
- combining benign and malignant tumor incidences known or thought to represent stages of progression in the same organ or tissue;
- latency in tumor induction;
- multiplicity in site -specific neoplasia;
- supporting information from proliferative lesions (hyperplasia) in the same site of neoplasia or in other experiments (same lesion in another sex or species);
- presence or absence of dose relationships;
- statistical significance of the observed tumor increase;
- concurrent control tumor incidence as well as the historical control rate and variability for a specific neoplasm;
- survival-adjusted analyses and false positive or false negative concerns;
- structure-activity correlations; and
[…]

[1] = Route (rodents): Interperitoneal
[2] = Route (rodents): Gavage, Second Route: Topical

## C[N+](=O)[O-]
Route (rodents): Inhalation
  carcinogen call: active; no evidence

## CC(COc1ccccc1)N(CCCl)Cc1ccccc1 (stereo unspecified)
[1]
  carcinogen call: active; clear evidence

## O=C(O)C1C(C(=O)O)C2(Cl)C(Cl)=C(Cl)C1(Cl)C2(Cl)Cl (stereo unspecified)
Route (rodents): Dosed feed
  carcinogen call: active; clear evidence

## [P]#[In]
Route (rodents): Inhalation
  carcinogen call: active; clear evidence

## CCCC[C@@H](C)[C@@H](OC(=O)C[C@@H](CC(=O)O)C(=O)O)[C@H](C[C@@H](C)C[C@H](O)CCCC[C@@H](O)C[C@H](O)[C@H](C)N)OC(=O)C[C@@H](CC(=O)O)C(=O)O
Route (rodents): Dosed feed
  carcinogen call: active; clear evidence

## ClC1=C(Cl)[C@]2(Cl)[C@H]3[C@H]([C@@H]4C=C[C@H]3C4)[C@@]1(Cl)C2(Cl)Cl
Route (rodents): Dosed feed
  carcinogen call: active; equivocal evidence

## ClC=C(Cl)Cl
Route (rodents): Gavage
  carcinogen call: active; no evidence

## C=CC(=C)C
Route (rodents): Inhalation
  carcinogen call: active; clear evidence

## COc1ccc(C)cc1N
Route (rodents): Dosed feed
  carcinogen call: active; clear evidence

## ClC(Cl)=C(Cl)Cl
Route (rodents): Inhalation
  carcinogen call: active; clear evidence

## C[C@]12CC[C@@H]3c4ccc(OC(=O)Cc5ccc(N(CCCl)CCCl)cc5)cc4CC[C@H]3[C@@H]1CC[C@@H]2OC(=O)Cc1ccc(N(CCCl)CCCl)cc1
Route (rodents): Gavage
  carcinogen call: active; no evidence

## Nc1c(Br)cc(Br)c2c1C(=O)c1ccccc1C2=O
Route (rodents): Dosed feed
  carcinogen call: active; clear evidence

## Cc1cc(-c2ccc(N)c(C)c2)ccc1N
Route (rodents): Dosed water
  carcinogen call: active; clear evidence

## Nc1cc([N+](=O)[O-])ccc1O
Route (rodents): Gavage
  carcinogen call: active; some evidence

## C1CC2OC2CC1C1CO1 (stereo unspecified)
Route (rodents): Topical
  carcinogen call: active; clear evidence

## ClCC(Cl)CCl
Route (rodents): Gavage
  carcinogen call: active; clear evidence

## C=CC1CC=CCC1 (stereo unspecified)
Route (rodents): Gavage
  carcinogen call: active; inadequate study

## C=CC=C
Route (rodents): Inhalation
  carcinogen call: active

## Nc1ccc(N=Nc2ccc(-c3ccc(N=Nc4c(S(=O)(=O)O)cc5cc(S(=O)(=O)O)c(N=Nc6ccccc6)c(O)c5c4N)cc3)cc2)c(N)c1
Route (rodents): Dosed feed
  carcinogen call: active; clear evidence

## CCOc1ccc(NC(C)=O)cc1N
Route (rodents): Dosed feed
  carcinogen call: active; no evidence

## CNc1ccc(N(CCO)CCO)cc1[N+](=O)[O-]
Route (rodents): Dosed feed
  carcinogen call: active; equivocal evidence

## Cc1cn([C@H]2C[C@H](N=[N+]=[N-])[C@@H](CO)O2)c(=O)[nH]c1=O
Route (rodents): Gavage, Second Route: Administration in utero
  carcinogen call: active

## ClCCl
Route (rodents): Inhalation
  carcinogen call: active; some evidence

## [O]=[Mo](=[O])=[O]
Route (rodents): Inhalation
  carcinogen call: active; equivocal evidence

## C=CCN=C=S
Route (rodents): Gavage
  carcinogen call: active; clear evidence

## Nc1ccccc1-c1ccccc1
Route (rodents): Dosed feed
  carcinogen call: active; no evidence

## Nc1ccccc1C(=O)OCC=Cc1ccccc1
Route (rodents): Dosed feed
  carcinogen call: active; clear evidence

## Nc1ccc(Oc2ccc(N)cc2)cc1
Route (rodents): Dosed feed
  carcinogen call: active; clear evidence

## C=C1C/C(=C/C)C(=O)O[C@@H]2CCN3CC=C(COC(=O)[C@@]1(O)CO)[C@H]23
Route (rodents): Gavage
  carcinogen call: active; clear evidence

## C[C@H]1CCCC(=O)CCC/C=C/c2cc(O)cc(O)c2C(=O)O1
Route (rodents): Dosed feed
  carcinogen call: active; no evidence

## c1ccc2c(c1)CCCC2
Route (rodents): Inhalation
  carcinogen call: active; some evidence

## CCCCOCCO
Route (rodents): Inhalation
  carcinogen call: active; no evidence

## CCCCCCCCCCCC(=O)N(CCO)CCO
Route (rodents): Topical
  carcinogen call: active; no evidence

## OCc1ccco1
Route (rodents): Inhalation
  carcinogen call: active; some evidence

## OCC(CO)(CBr)CBr
Route (rodents): Dosed feed
  carcinogen call: active; clear evidence

## CCNC(=O)Nc1ncc([N+](=O)[O-])s1
Route (rodents): Dosed feed
  carcinogen call: active; no evidence

## COc1ccc(N)c(C)c1
Route (rodents): Gavage
  carcinogen call: active; clear evidence

## O=P(OCCCl)(OCCCl)OCCCl
Route (rodents): Gavage
  carcinogen call: active; clear evidence

## NCCCCCCCCCCC(=O)O
Route (rodents): Dosed feed
  carcinogen call: active; clear evidence

## O=C(O)C(Cl)Br (stereo unspecified)
Route (rodents): Dosed water
  carcinogen call: active; clear evidence

## C1COCCO1
Route (rodents): Dosed water
  carcinogen call: active; clear evidence

## Nc1ncc([N+](=O)[O-])s1
Route (rodents): Dosed feed
  carcinogen call: active; clear evidence

## ClC(Cl)Br
Route (rodents): Gavage, Second Route: Dosed Water
  carcinogen call: active; clear evidence

## O=C1C2(Cl)C3(Cl)C4(Cl)C(Cl)(Cl)C5(Cl)C3(Cl)C1(Cl)C5(Cl)C24Cl (stereo unspecified)
Route (rodents): Dosed feed
  carcinogen call: active; clear evidence

## C=CC(=O)OCC
Route (rodents): Gavage
  carcinogen call: active; clear evidence

## N#Cc1c(Cl)c(Cl)c(Cl)c(C#N)c1Cl
Route (rodents): Dosed feed
  carcinogen call: active; clear evidence

## C=CC(=O)OCC(CC)(COC(=O)C=C)COC(=O)C=C
Route (rodents): Topical
  carcinogen call: active; equivocal evidence

## c1ccc(N=Nc2ccccc2)cc1
Route (rodents): Dosed feed
  carcinogen call: active; clear evidence

## O=Nc1ccc(Nc2ccccc2)cc1
Route (rodents): Dosed feed
  carcinogen call: active; clear evidence

## Cc1cccc(C)c1N
Route (rodents): Dosed feed
  carcinogen call: active; clear evidence

## CC1=CC(=O)CC(C)(C)C1
Route (rodents): Gavage
  carcinogen call: active; some evidence

## Nc1ccccc1
Route (rodents): Dosed feed
  carcinogen call: active; clear evidence

## O=[N+]([O-])c1ccc2nc[nH]c2c1
Route (rodents): Dosed feed
  carcinogen call: active; no evidence

## NC(=O)C1CO1 (stereo unspecified)
Route (rodents): Dosed water
  carcinogen call: active; clear evidence

## Cc1ccc([N+](=O)[O-])cc1
Route (rodents): Dosed feed
  carcinogen call: active; equivocal evidence

## CCOc1ccc(NC(C)=O)cc1[N+](=O)[O-]
Route (rodents): Dosed feed
  carcinogen call: active; no evidence

## ClC(Cl)C(Cl)Cl
Route (rodents): Gavage
  carcinogen call: active; equivocal evidence

## CC1(C)COC1=O
Route (rodents): Gavage
  carcinogen call: active; clear evidence

## CC1C(=O)C[C@]2(C(C)C)C[C@H]12 (stereo partly specified)
Route (rodents): Gavage
  carcinogen call: active; some evidence

## O=c1c(-c2ccc(O)cc2)coc2cc(O)cc(O)c12
Route (rodents): Dosed feed
  carcinogen call: active; no evidence

## ClC(Cl)C(Cl)(Cl)Cl
Route (rodents): Gavage
  carcinogen call: active; equivocal evidence

## O=C1Nc2ccc(Cl)cc2C(c2ccccc2)=NC1O (stereo unspecified)
Route (rodents): Dosed feed
  carcinogen call: active; equivocal evidence

## O=P(OCC(Br)CBr)(OCC(Br)CBr)OCC(Br)CBr (stereo unspecified)
Route (rodents): Dosed feed
  carcinogen call: active; clear evidence

## C[C@]12CCC(=O)C=C1CC[C@@H]1[C@@H]2CC[C@]2(C)C(=O)CC[C@@H]12
Route (rodents): Gavage
  carcinogen call: active; equivocal evidence

## OCc1c[nH]c2ccccc12
Route (rodents): Gavage
  carcinogen call: active; no evidence

## C=CC(=C)CCC=C(C)C
Route (rodents): Gavage
  carcinogen call: active; clear evidence

## S=C1NCCN1
Route (rodents): Dosed feed
  carcinogen call: active; clear evidence

## ClC(Cl)Cl
Route (rodents): Gavage
  carcinogen call: active; clear evidence

## Cc1cc(C)c(N)cc1C
Route (rodents): Dosed feed
  carcinogen call: active; clear evidence

## Cc1ccc([N+](=O)[O-])cc1N
Route (rodents): Dosed feed
  carcinogen call: active; no evidence

## Nc1ccc(Cl)cc1
Route (rodents): Gavage
  carcinogen call: active; clear evidence

## S=[Se]
[2]
  carcinogen call: active; clear evidence

## COc1ccc(C(=O)/C(Br)=C\C(=O)O)cc1
[1]
  carcinogen call: active; clear evidence

## Clc1cc2c(c(Cl)c1Cl)Oc1cc(Cl)c(Cl)c(Cl)c1O2
[2]
  carcinogen call: active; equivocal evidence

## c1ccc(NNc2ccccc2)cc1
Route (rodents): Dosed feed
  carcinogen call: active; clear evidence

## O=C(O)c1cc(N=Nc2ccc(S(=O)(=O)Nc3ccccn3)cc2)ccc1O
Route (rodents): Gavage
  carcinogen call: active; some evidence

## ClCC(Br)CBr (stereo unspecified)
Route (rodents): Inhalation, Second Route: Gavage
  carcinogen call: active; clear evidence

## O=C(O)c1ccc([N+](=O)[O-])cc1
Route (rodents): Dosed feed
  carcinogen call: active; no evidence

## Cc1ccccc1N
Route (rodents): Dosed feed
  carcinogen call: active; clear evidence

## Cc1cc(N=Nc2c(O)ccc3ccccc23)c(S(=O)(=O)O)cc1Cl
Route (rodents): Dosed feed
  carcinogen call: active; clear evidence

## Cc1ccc(N)cc1N
Route (rodents): Dosed feed
  carcinogen call: active; clear evidence

## O=[N+]([O-])c1ccc(Oc2ccc(Cl)cc2Cl)cc1
Route (rodents): Dosed feed
  carcinogen call: active; no evidence

## COc1cc(-c2ccc(N=C=O)c(OC)c2)ccc1N=C=O
Route (rodents): Dosed feed
  carcinogen call: active; clear evidence

## Cc1ccc2c(c1[N+](=O)[O-])C(=O)c1ccccc1C2=O
Route (rodents): Dosed feed
  carcinogen call: active; clear evidence

## CC(C)CCC[C@@H](C)[C@H]1CC[C@H]2[C@@H]3CC=C4C[C@@H](OC(=O)Cc5ccc(N(CCCl)CCCl)cc5)CC[C@]4(C)[C@H]3CC[C@]12C
Route (rodents): Gavage
  carcinogen call: active; no evidence

## CCCCC(CC)COP(=O)(OCC(CC)CCCC)OCC(CC)CCCC (stereo unspecified)
Route (rodents): Gavage
  carcinogen call: active; equivocal evidence
